Results reported in ChEMBL document CHEMBL1687699, “Discovery of Dual VEGFR-2 and Tubulin Inhibitors with in Vivo Efficacy” (ACS Med Chem Lett, 2010).
Values belong to the molecule of their own block, whether it stands above or below them. Activity calls are given as the source filed them. The calls are words filed in the database; no cut-off is given here.

What was measured:
[1] = target: T1, Vascular endothelial growth factor receptor 2 (Homo sapiens, UniProt P35968); assay: Inhibition of VEGFR2 expressed HEK293 cells; format: cell-based
[2] = Inhibition of bovine tubulin polymerization after 30 mins by turbidity assay; parameters: species or system Bos taurus
[3] = target: T1, Vascular endothelial growth factor receptor 2; assay: Inhibition of VEGFR-2 kinase assessed as phosphorylated level of pGAT-biotin peptide preincubated for 5 to 10 mins before addition of substrate measured after 2 hrs by HTRF assay
A-431 = assay: cells; conditions: Homo sapiens, A-431, 24 h
Description: Cell cycle arrest in human A431 cells assessed as accumulation at G2/M phase after 24 hrs using propidium iodide staining by cell sorting method

Mus musculus [4] = assay: Toxicity in mouse assessed as body weight change at 100 mg/kg, po administered once a week; format: organism-based; parameters: dose 100 mg/kg, route oral; conditions: in vivo
[5] = Antitumor activity against human MDA-MB-435-LM2 cells xenografted in mouse assessed as tumor size at 100 mg/kg, po administered once a week measured on day 26 relative to control; format: functional
Mus musculus [6] = assay: Toxicity in mouse assessed as enlarged intestine at 100 mg/kg, po administered once a week; format: organism-based; parameters: dose 100 mg/kg, route oral; conditions: in vivo
Mus musculus [7] = assay: Toxicity in mouse assessed as inflamed intestine at 100 mg/kg, po administered once a week; format: organism-based; parameters: dose 100 mg/kg, route oral; conditions: in vivo
Mus musculus [8] = assay: Toxicity in mouse assessed as distended stomach at 100 mg/kg, po administered once a week; format: organism-based; parameters: dose 100 mg/kg, route oral; conditions: in vivo
Mus musculus [9] = assay: Toxicity in mouse assessed as moribund at 100 mg/kg, po administered once a week measured on day 26; format: organism-based; parameters: dose 100 mg/kg, route oral; conditions: in vivo
[10] = target: T2, Aurora kinase A (Homo sapiens) (UniProt O14965); assay: Inhibition of Aurora A kinase
T2 sequence (whole entry): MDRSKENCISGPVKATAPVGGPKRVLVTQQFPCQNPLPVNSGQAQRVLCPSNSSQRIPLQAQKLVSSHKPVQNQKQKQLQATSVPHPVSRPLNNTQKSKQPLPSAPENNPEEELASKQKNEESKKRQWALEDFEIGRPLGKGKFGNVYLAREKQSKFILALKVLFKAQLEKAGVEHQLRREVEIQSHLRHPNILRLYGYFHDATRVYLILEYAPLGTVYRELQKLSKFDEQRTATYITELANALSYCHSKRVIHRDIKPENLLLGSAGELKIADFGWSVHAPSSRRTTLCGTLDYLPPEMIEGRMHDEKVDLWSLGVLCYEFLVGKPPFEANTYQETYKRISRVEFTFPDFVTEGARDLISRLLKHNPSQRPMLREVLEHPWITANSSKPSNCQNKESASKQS

[11] = target: Cyclin-dependent kinase 1 (Homo sapiens) (UniProt P06493); assay: Inhibition of CDK1
[12] = target: Serine/threonine-protein kinase PLK1 (Homo sapiens) (UniProt P53350); assay: Inhibition of polo-like kinase 1
Mus musculus [13] = assay: Toxicity in mouse assessed as abnormal pathology at 100 mg/kg, po administered once a week; format: organism-based; parameters: dose 100 mg/kg, route oral; conditions: in vivo
Mus musculus [14] = assay: Toxicity in mouse assessed as neuropathy at 100 mg/kg administered once a week; format: organism-based; parameters: dose 100 mg/kg; conditions: in vivo
Mus musculus [15] = assay: Toxicity in mouse assessed as white blood cell depletion at 100 mg/kg administered once a week; format: organism-based; parameters: dose 100 mg/kg; conditions: in vivo
[16] = Toxicity in po dosed mouse; format: organism-based; conditions: in vivo
Mus musculus [17] = assay: Toxicity in mouse assessed as discomfort signs at 100 mg/kg, po administered once a week; format: organism-based; parameters: dose 100 mg/kg, route oral; conditions: in vivo

T1 sequence (P35968 whole entry): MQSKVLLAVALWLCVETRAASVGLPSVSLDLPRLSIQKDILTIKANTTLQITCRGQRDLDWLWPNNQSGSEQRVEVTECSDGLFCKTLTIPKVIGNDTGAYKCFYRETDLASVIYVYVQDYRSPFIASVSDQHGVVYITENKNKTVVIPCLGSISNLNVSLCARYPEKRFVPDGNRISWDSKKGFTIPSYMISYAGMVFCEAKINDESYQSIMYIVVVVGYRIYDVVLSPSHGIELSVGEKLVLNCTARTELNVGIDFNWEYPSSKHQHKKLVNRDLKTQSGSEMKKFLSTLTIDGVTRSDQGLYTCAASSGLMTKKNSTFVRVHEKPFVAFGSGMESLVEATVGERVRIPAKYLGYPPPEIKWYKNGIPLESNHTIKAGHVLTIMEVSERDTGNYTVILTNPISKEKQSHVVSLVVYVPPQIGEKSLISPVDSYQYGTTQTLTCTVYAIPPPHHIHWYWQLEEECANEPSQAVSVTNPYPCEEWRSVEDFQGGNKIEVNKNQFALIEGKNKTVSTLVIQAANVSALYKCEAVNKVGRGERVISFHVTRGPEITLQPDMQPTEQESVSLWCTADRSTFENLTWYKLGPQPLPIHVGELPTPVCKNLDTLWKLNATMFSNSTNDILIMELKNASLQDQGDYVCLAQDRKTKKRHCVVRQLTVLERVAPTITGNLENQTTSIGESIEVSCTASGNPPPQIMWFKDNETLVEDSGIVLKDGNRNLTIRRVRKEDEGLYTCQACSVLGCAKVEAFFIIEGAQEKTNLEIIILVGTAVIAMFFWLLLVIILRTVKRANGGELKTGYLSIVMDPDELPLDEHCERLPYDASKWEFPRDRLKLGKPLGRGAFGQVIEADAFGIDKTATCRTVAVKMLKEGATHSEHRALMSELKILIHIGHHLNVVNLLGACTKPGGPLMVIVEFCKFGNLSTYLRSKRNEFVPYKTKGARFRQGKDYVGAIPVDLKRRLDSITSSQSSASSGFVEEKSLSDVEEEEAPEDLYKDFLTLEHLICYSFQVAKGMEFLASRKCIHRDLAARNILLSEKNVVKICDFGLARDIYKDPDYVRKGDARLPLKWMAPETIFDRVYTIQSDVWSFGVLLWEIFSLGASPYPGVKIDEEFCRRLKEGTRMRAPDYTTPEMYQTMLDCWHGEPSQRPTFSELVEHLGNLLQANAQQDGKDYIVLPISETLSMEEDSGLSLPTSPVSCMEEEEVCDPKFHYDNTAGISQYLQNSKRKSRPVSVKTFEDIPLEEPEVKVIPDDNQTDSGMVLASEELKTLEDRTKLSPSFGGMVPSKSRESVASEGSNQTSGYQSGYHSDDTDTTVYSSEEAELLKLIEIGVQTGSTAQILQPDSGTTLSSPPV
Chain of Serine/threonine-protein kinase PLK1 (Homo sapiens) (P53350 whole entry): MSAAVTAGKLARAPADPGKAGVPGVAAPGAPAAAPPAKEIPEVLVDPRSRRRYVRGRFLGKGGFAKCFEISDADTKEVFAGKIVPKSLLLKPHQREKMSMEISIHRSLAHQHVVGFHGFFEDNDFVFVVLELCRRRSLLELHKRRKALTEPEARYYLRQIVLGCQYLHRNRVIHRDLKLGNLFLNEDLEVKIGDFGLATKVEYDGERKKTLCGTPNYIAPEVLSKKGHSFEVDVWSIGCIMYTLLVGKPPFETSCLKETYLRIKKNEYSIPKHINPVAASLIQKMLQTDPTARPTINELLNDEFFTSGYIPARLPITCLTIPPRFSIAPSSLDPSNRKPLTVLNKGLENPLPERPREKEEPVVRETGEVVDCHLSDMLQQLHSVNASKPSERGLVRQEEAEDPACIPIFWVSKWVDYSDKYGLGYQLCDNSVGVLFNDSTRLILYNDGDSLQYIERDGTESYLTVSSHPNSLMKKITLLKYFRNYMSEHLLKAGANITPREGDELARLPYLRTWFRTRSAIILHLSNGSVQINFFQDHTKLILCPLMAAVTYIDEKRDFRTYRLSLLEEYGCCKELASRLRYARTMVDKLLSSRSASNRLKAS
Chain of Cyclin-dependent kinase 1 (Homo sapiens) (P06493 whole entry, looked up): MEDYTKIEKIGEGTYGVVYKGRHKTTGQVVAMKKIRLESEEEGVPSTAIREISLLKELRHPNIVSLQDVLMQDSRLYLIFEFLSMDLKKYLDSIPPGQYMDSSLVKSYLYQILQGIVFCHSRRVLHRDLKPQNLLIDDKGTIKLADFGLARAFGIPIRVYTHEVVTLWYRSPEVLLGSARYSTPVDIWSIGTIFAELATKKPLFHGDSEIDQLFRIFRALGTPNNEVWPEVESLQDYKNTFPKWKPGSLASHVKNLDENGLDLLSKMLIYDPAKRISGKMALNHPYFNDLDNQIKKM

SMILES: c1ccc(-c2nnc(Nc3ccc4c(c3)OCCO4)[nH]2)c(NCc2cnc[nH]2)c1
IC50 [1]: > 10 µM | IC50 [2]: > 10 µM | IC50 [3]: 4.6 µM | EC50 (A-431): > 10 µM

SMILES: c1cncc(CCNc2ncccc2-c2nnc(Nc3ccc4c(c3)OCO4)o2)c1
IC50 [1]: > 10 µM | IC50 [2]: 1.7 µM | IC50 [3]: 3.41 µM | EC50 (A-431): > 10 µM

SMILES: CC(=O)O[C@H]1C(=O)[C@@]2(C)[C@H]([C@H](OC(=O)c3ccccc3)[C@]3(O)C[C@H](OC(=O)[C@H](O)[C@@H](NC(=O)c4ccccc4)c4ccccc4)C(C)=C1C3(C)C)[C@]1(OC(C)=O)CO[C@@H]1C[C@@H]2O [PACLITAXEL]
Activity (Mus musculus [4]): 2.8% | Activity [5]: 78% | Activity (Mus musculus [6]): Toxic | Activity (Mus musculus [7]): Toxic | Activity (Mus musculus [8]): Toxic | Activity (Mus musculus [9]): Toxic

SMILES: c1ccc(-c2nnc(Nc3ccc4c(c3)OCCO4)[nH]2)c(NCc2ccc3[nH]ncc3c2)c1
IC50 [1]: 7.3 µM | IC50 [2]: > 10 µM | IC50 [3]: 3.1 µM | EC50 (A-431): > 10 µM

SMILES: FC1(F)Oc2ccc(Nc3nnc(-c4cccnc4NCc4ccncc4)o3)cc2O1
IC50 [1]: > 10 µM | IC50 [2]: 3.9 µM | IC50 [3]: 3.16 µM | EC50 (A-431): > 10 µM

SMILES: c1ccc(-c2nnc(Nc3ccc4c(c3)OCO4)o2)c(NCc2ccncc2)c1
IC50 [1]: > 10 µM | IC50 [2]: 0.69 µM | IC50 [3]: 0.83 µM | EC50 (A-431): 0.62 µM

SMILES: c1cncc(CCNc2ncccc2-c2nnc(Nc3ccc4c(c3)OCCO4)o2)c1
IC50 [1]: > 10 µM | IC50 [2]: > 10 µM | IC50 [3]: > 10 µM | EC50 (A-431): > 10 µM

SMILES: c1ccc(-c2nnc(Nc3ccc4c(c3)OCCO4)[nH]2)c(NCc2ccncc2)c1
IC50 [1]: > 10 µM | IC50 [2]: 8.1 µM | IC50 [3]: 5.1 µM | EC50 (A-431): 0.049 µM

SMILES: c1ccc(-c2nnc(Nc3ccc4c(c3)OCCO4)[nH]2)c(NCc2ccc3ncccc3c2)c1
IC50 [1]: > 10 µM | IC50 [2]: > 10 µM | IC50 [3]: > 10 µM | EC50 (A-431): > 10 µM

SMILES: c1cncc(CNc2ccccc2-c2nnc(Nc3ccc4c(c3)OCCO4)[nH]2)c1
IC50 [1]: 2.8 µM | IC50 [2]: > 10 µM | IC50 [3]: 3.2 µM | EC50 (A-431): > 10 µM

SMILES: FC(F)(F)c1cccc(-c2nnc(-c3cccnc3NCc3ccncc3)o2)c1
IC50 [1]: > 10 µM | IC50 [2]: > 10 µM | IC50 [3]: 2.5 µM | EC50 (A-431): > 10 µM

SMILES: CS(=O)(=O)c1ccc(-c2nnc(-c3cccnc3NCC3COCCO3)[nH]2)cc1 (stereo unspecified)
IC50 [1]: > 10 µM | IC50 [2]: 6.6 µM | IC50 [3]: 4.5 µM | EC50 (A-431): > 10 µM

SMILES: FC(F)(F)c1cccc(-c2nnc(-c3cccnc3NCc3ccncc3)[nH]2)c1
IC50 [1]: 1 µM | IC50 [2]: > 10 µM | IC50 [3]: 1.1 µM | EC50 (A-431): > 10 µM

SMILES: c1cnc(NCCc2ccncc2)c(-c2nnc(Nc3ccc4c(c3)OCO4)o2)c1
IC50 [1]: > 10 µM | IC50 [2]: > 10 µM | IC50 [3]: > 10 µM | EC50 (A-431): > 10 µM

SMILES: c1ccc(-c2nnc(Nc3ccc4c(c3)OCCO4)o2)c(NCc2ccncc2)c1
Activity (Mus musculus [13]): Toxic | Activity (Mus musculus [14]): Non-toxic | Activity (Mus musculus [4]): 3.1% | Activity [5]: 28% | IC50 [1]: 0.11 µM | inhibition [10]: Active | inhibition [11]: Active | Activity (Mus musculus [15]): Non-toxic | inhibition [12]: Active | IC50 [2]: 1.09 µM | IC50 [3]: 0.21 µM | EC50 (A-431): 0.009 µM | MTD [16]: 100 mg/kg | Activity (Mus musculus [17]): Toxic

Other lines, results leading:

IC50 [1]: > 10 µM | IC50 [2]: > 10 µM | IC50 [3]: > 10 µM | EC50 (A-431): > 10 µM
SMILES: c1cnc(NCCc2ccncc2)c(-c2nnc(Nc3ccc4c(c3)OCCO4)o2)c1

IC50 [1]: > 10 µM | IC50 [2]: 8.8 µM | IC50 [3]: > 10 µM
SMILES: c1cncc(CNc2ncccc2-c2nnc(Nc3ccc4c(c3)OCO4)o2)c1

IC50 [1]: > 10 µM | IC50 [2]: 1 µM | IC50 [3]: 1.89 µM
SMILES: c1cnc(NCc2ccncc2)c(-c2nnc(Nc3ccc4c(c3)OCO4)o2)c1

IC50 [1]: > 10 µM | IC50 [2]: 1.7 µM | IC50 [3]: > 10 µM
SMILES: c1ccc(CNc2ncccc2-c2nnc(Nc3ccc4c(c3)OCO4)o2)nc1

IC50 [1]: > 10 µM | IC50 [2]: 0.7 µM | IC50 [3]: > 10 µM
SMILES: c1cncc(CNc2ncccc2-c2nnc(Nc3ccc4c(c3)OCCO4)o2)c1

IC50 [1]: > 10 µM | IC50 [2]: 2.5 µM | IC50 [3]: > 10 µM | EC50 (A-431): 0.52 µM
SMILES: c1cnc(NCc2ccc3c(c2)OCO3)c(-c2nnc(Nc3ccc4c(c3)OCO4)o2)c1

IC50 [1]: 0.22 µM | inhibition [10]: Active | inhibition [11]: Active | inhibition [12]: Active | IC50 [2]: 1.45 µM | IC50 [3]: 0.3 µM | EC50 (A-431): 0.018 µM
SMILES: c1cnc(NCc2ccc3ncccc3c2)c(-c2nnc(Nc3ccc4c(c3)OCCO4)o2)c1

IC50 [1]: > 10 µM | IC50 [2]: 1.25 µM | IC50 [3]: 1.4 µM | EC50 (A-431): 0.034 µM
SMILES: c1cnc(NCc2ccc3[nH]ncc3c2)c(-c2nnc(Nc3ccc4c(c3)OCCO4)o2)c1

IC50 [1]: 0.83 µM | IC50 [2]: 1.5 µM | IC50 [3]: 0.16 µM | EC50 (A-431): 0.01 µM
SMILES: c1cnc(NCc2cnc[nH]2)c(-c2nnc(Nc3ccc4c(c3)OCCO4)o2)c1

IC50 [1]: > 10 µM | IC50 [2]: 0.71 µM | IC50 [3]: 2.6 µM
SMILES: c1cnc(NCc2ccc3c(c2)OCO3)c(-c2nnc(Nc3ccc4c(c3)OCCO4)o2)c1

IC50 [1]: > 10 µM | IC50 [2]: 1.9 µM | IC50 [3]: > 10 µM
SMILES: c1ccc(CNc2ncccc2-c2nnc(Nc3ccc4c(c3)OCCO4)o2)nc1

IC50 [1]: 1 µM | IC50 [2]: 0.5 µM | IC50 [3]: 0.17 µM
SMILES: c1cnc(NCc2ccncc2)c(-c2nnc(Nc3ccc4c(c3)OCCO4)o2)c1
